Laboratory results: PubChem BioAssay AID2060899 (Molecular Pharmacology Branch, DTP, NCI, 2025)

System: 565726-208-R1-J5-PDC complex spheroids, growth inhibition
Experiment: Anticancer human tumor 565726-208-R1-J5-PDC patient-derived pancreatic adenocarcinoma cell line growth inhibition [RAS]
Settings: for viability, T/C: stronger effect = lower value
In short: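 Multi-cell-type spheroids: tumor cells plus HUVEC endothelial cells and mesenchymal stem cells. RAS-pathway inhibitors were combined with targeted agents, each dosed in half-log steps down from clinical Cmax, or from 10 microM when Cmax was unknown.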
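Further: spheroids exposed to compounds for seven days before readout.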
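Wherever viability, T/C is given: 100% = DMSO vehicle control viability.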

CCC(CC)c1cc(NC2CCC(N)C2)n2nccc2n1 (centres undefined) + C=CC(=O)N1CCN(c2nc(OCC3CCCN3C)nc3c(F)c(-c4nc(N)cc(C)c4C(F)(F)F)c(Cl)cc23)C(C)C1 showed an IC50 (curve of first compound, second compound 0.00316 µM) of 1930 nM, an IC50 (curve of first compound, second compound 0.01 µM) of 1700 nM and an IC50 (curve of first compound, second compound 0.0316 µM) of 1620 nM. For the same compound, the IC50 (curve of first compound, second compound 0.1 µM) was 1600 nM, the IC50 (curve of first compound, second compound 0.316 µM) was 1580 nM and the IC50 (curve of first compound, second compound 1 µM) was 1720 nM. It also gave a viability, T/C (second compound 0.00316 µM, first compound 0.0316 µM) of 152%, a viability, T/C (second compound 0.00316 µM, first compound 0.1 µM) of 180% and a viability, T/C (second compound 0.00316 µM, first compound 0.316 µM) of 128%. For the same compound, the viability, T/C (second compound 0.00316 µM, first compound 1 µM) was 110%, the viability, T/C (second compound 0.00316 µM, first compound 3.16 µM) was 1.79% and the viability, T/C (second compound 0.00316 µM, first compound 10 µM) was 2.13%. For the same compound, the viability, T/C (second compound 0.01 µM, first compound 0.0316 µM) was 166%, the viability, T/C (second compound 0.01 µM, first compound 0.1 µM) was 179% and the viability, T/C (second compound 0.01 µM, first compound 0.316 µM) was 114%. The viability, T/C (second compound 0.01 µM, first compound 1 µM) was 94.6%, the viability, T/C (second compound 0.01 µM, first compound 3.16 µM) was 3.11% and the viability, T/C (second compound 0.01 µM, first compound 10 µM) was 1.95%. The viability, T/C (second compound 0.0316 µM, first compound 0.0316 µM) was 174%, the viability, T/C (second compound 0.0316 µM, first compound 0.1 µM) was 170% and the viability, T/C (second compound 0.0316 µM, first compound 0.316 µM) was 125%. It also gave a viability, T/C (second compound 0.0316 µM, first compound 1 µM) of 88.1%, a viability, T/C (second compound 0.0316 µM, first compound 3.16 µM) of 1.53% and a viability, T/C (second compound 0.0316 µM, first compound 10 µM) of 2.03%. It also gave a viability, T/C (second compound 0.1 µM, first compound 0.0316 µM) of 221%, a viability, T/C (second compound 0.1 µM, first compound 0.1 µM) of 184% and a viability, T/C (second compound 0.1 µM, first compound 0.316 µM) of 102%. It also gave a viability, T/C (second compound 0.1 µM, first compound 1 µM) of 96.2%, a viability, T/C (second compound 0.1 µM, first compound 3.16 µM) of 1.59% and a viability, T/C (second compound 0.1 µM, first compound 10 µM) of 2.52%. It also gave a viability, T/C (second compound 0.316 µM, first compound 0.0316 µM) of 182%, a viability, T/C (second compound 0.316 µM, first compound 0.1 µM) of 169% and a viability, T/C (second compound 0.316 µM, first compound 0.316 µM) of 103%. It also gave a viability, T/C (second compound 0.316 µM, first compound 1 µM) of 92.5%, a viability, T/C (second compound 0.316 µM, first compound 3.16 µM) of 1.41% and a viability, T/C (second compound 0.316 µM, first compound 10 µM) of 2.15%. It also gave a viability, T/C (second compound 1 µM, first compound 0.0316 µM) of 175%, a viability, T/C (second compound 1 µM, first compound 0.1 µM) of 176% and a viability, T/C (second compound 1 µM, first compound 0.316 µM) of 136%. It also gave a viability, T/C (second compound 1 µM, first compound 1 µM) of 92.7%, a viability, T/C (second compound 1 µM, first compound 3.16 µM) of 1.49% and a viability, T/C (second compound 1 µM, first compound 10 µM) of 1.88%.
For CC(=O)OC12COC1CC(O)C1(C)C(=O)C(O)C3=C(C)C(OC(=O)C(O)C(NC(=O)OC(C)(C)C)c4ccccc4)CC(O)(C(OC(=O)c4ccccc4)C21)C3(C)C (centres undefined), the viability, T/C (compound 0.0316 µM) was 20.4% [middle of 4 runs], the viability, T/C (compound 0.1 µM) was 20.9% [middle of 4 runs] and the viability, T/C (compound 0.316 µM) was 19.3% [middle of 4 runs]. The viability, T/C (compound 1 µM) was 19.9% [middle of 4 runs], the viability, T/C (compound 3.16 µM) was 24.2% [middle of 4 runs] and the viability, T/C (compound 10 µM) was 27% [middle of 4 runs]. The IC50 (curve of compound) was under 31.6 nM.
